Results: PubChem BioAssay (NCI)
Values joined by “and” are separate entries in the source; they are usually repeats but may differ in a detail not shown here. Equal entries are not always repeated.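 Test compounds were applied to cells in 96-well plates for 48 hours at 5 doses. GI50: concentration for 50% inhibition of growth. TGI: total growth inhibition.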

Assays:
Experiment in all cases: NCI tumour cell line growth inhibition, 48 h
[1] = system: CAKI-1 renal
[2] = system: HCC-2998 colon
[3] = system: RXF 393 renal
[4] = system: NCI-H522 lung
[5] = system: MDA-MB-435
[6] = system: CCRF-CEM leukemia
[7] = system: HL-60(TB) leukemia
[8] = system: NCI-H226 lung
[9] = system: HOP-18 NSCLC
[10] = system: M19-MEL melanoma

S=c1nc[nH]c2nc[nH]c12
TGI [1]: > 100 µM and 436 µM and > 750 µM
GI50 [2]: 2.93 µM and 11.7 µM
TGI [2]: > 100 µM and 463 µM and > 750 µM
TGI [3]: > 100 µM and 629 µM and > 750 µM
GI50 [4]: 5.3 µM and 8.69 µM
TGI [4]: > 100 µM and 302 µM and > 750 µM
GI50 [5]: 0.61 µM
TGI [5]: > 750 µM
GI50 [6]: 0.972 µM
TGI [6]: > 100 µM and 310 µM
GI50 [7]: 3.11 µM and 3.31 µM
TGI [8]: > 100 µM and 676 µM and > 750 µM
TGI [9]: 644 µM
TGI [10]: > 734 µM

CN(C)CCNC(=O)c1cccc2ccc(-c3cccnc3)nc12
TGI [1]: 32.9 µM
TGI [2]: 18 µM
TGI [3]: 19.5 µM
TGI [6]: > 100 µM
TGI [7]: > 100 µM
TGI [8]: 22.2 µM
TGI [9]: 62.9 µM
TGI [10]: 16.9 µM

O=C(c1ccccn1)c1nc(-c2ccc(Cl)c(Cl)c2)nc2ccc(Cl)cc12
TGI [1]: > 100 µM
TGI [2]: > 100 µM
TGI [3]: 46.8 µM
TGI [6]: > 100 µM
TGI [7]: > 100 µM
TGI [8]: > 100 µM
TGI [10]: > 100 µM

COc1ccc2[nH]c(-c3ccccc3)c(C=C(C#N)C#N)c2c1
GI50 [1]: 4.13 µM
TGI [1]: > 100 µM
GI50 [2]: 6.08 µM
TGI [2]: > 100 µM
GI50 [3]: 9.82 µM
TGI [3]: > 100 µM
GI50 [4]: 4.57 µM
TGI [4]: > 100 µM
GI50 [5]: 0.607 µM
TGI [5]: 4.68 µM
GI50 [6]: 3.42 µM
TGI [6]: > 100 µM
GI50 [7]: 2.5 µM
TGI [7]: 13.2 µM
GI50 [8]: 3.51 µM
TGI [8]: 57.6 µM

O=C(C[C@@]1(O)C(=O)Nc2c(Cl)ccc(Cl)c21)c1ccc(C2CC2)cc1
GI50 [1]: 0.214 µM
TGI [1]: 17.2 µM
GI50 [2]: 0.888 µM
TGI [2]: 14.8 µM
GI50 [3]: 0.257 µM
TGI [3]: 4.03 µM
GI50 [4]: 0.0682 µM
TGI [4]: 14.1 µM
GI50 [5]: 0.033 µM
TGI [5]: 0.232 µM
GI50 [6]: 0.341 µM
TGI [6]: > 100 µM
GI50 [7]: 0.263 µM
TGI [7]: 1.07 µM
GI50 [8]: 1.54 µM
TGI [8]: 19.7 µM

CCCCNC(=O)OCC(COc1ccccc1OC)OC(=O)NCCCC (configuration not stated)
TGI [1]: > 100 µM
TGI [2]: > 100 µM
TGI [3]: > 100 µM
TGI [4]: > 100 µM
TGI [6]: > 100 µM
TGI [7]: > 100 µM
TGI [8]: > 100 µM
TGI [9]: > 100 µM
TGI [10]: > 100 µM

COc1ccc(OC)c(/C=C/C(=O)C(C)(C)C)c1
TGI [1]: 39.1 µM
TGI [2]: 39.7 µM
TGI [3]: 34.3 µM
TGI [4]: 30.4 µM
TGI [6]: 44.5 µM
TGI [7]: 38.7 µM
TGI [8]: 35.4 µM
TGI [9]: 38.9 µM
TGI [10]: 34.9 µM

CC(C)[C@H]1CO[C@@H]2O[C@H](C)CC(=O)N21
TGI [1]: > 100 µM
TGI [3]: > 100 µM
TGI [4]: > 100 µM
TGI [6]: > 100 µM
TGI [7]: > 100 µM
TGI [8]: > 100 µM
TGI [9]: > 100 µM
TGI [10]: > 100 µM

O=C1NC2(CCCC2)/C(=N\O)C12CCCC2
TGI [1]: > 100 µM
TGI [3]: > 100 µM
TGI [4]: > 100 µM
TGI [6]: > 100 µM
TGI [7]: > 100 µM
TGI [9]: > 100 µM
TGI [10]: > 100 µM

C=CC1(c2ccccc2Cl)N/C(=C/OCC)CO1 (configuration not stated)
TGI [1]: > 100 µM
TGI [2]: > 100 µM
TGI [3]: > 100 µM
TGI [4]: > 100 µM
TGI [6]: > 100 µM
TGI [7]: > 100 µM
TGI [8]: > 100 µM
TGI [9]: > 100 µM
TGI [10]: > 100 µM

CCOC(=O)C1(Br)C(c2ccccc2)NC(=O)N(C2OC(COC(=O)c3ccccc3)C(OC(=O)c3ccccc3)C2OC(=O)c2ccccc2)C1(C)Br (configuration not stated)
TGI [1]: > 100 µM
TGI [2]: > 100 µM
TGI [3]: 31 µM
TGI [4]: 20.3 µM
TGI [6]: 18.8 µM
TGI [9]: > 100 µM
TGI [10]: > 100 µM

OC(COc1cccc2ccccc12)CN1CCN(c2ccc(Cl)cc2)CC1 (configuration not stated)
GI50 [1]: 5.8 µM
TGI [1]: 31.4 µM
GI50 [2]: > 100 µM
TGI [2]: > 100 µM
GI50 [3]: 28.6 µM
TGI [3]: 75.9 µM
GI50 [4]: 15.7 µM
TGI [4]: 43.5 µM
GI50 [5]: 38.8 µM
TGI [5]: > 100 µM
GI50 [6]: > 100 µM
TGI [6]: > 100 µM
GI50 [7]: > 100 µM
TGI [7]: > 100 µM
GI50 [8]: 13.8 µM
TGI [8]: 70.4 µM

O=c1c2[nH]c3ccccc3c2nc2n1CCS2
GI50 [1]: 38.7 µM
TGI [1]: > 100 µM
GI50 [2]: > 100 µM
TGI [2]: > 100 µM
GI50 [3]: > 100 µM
TGI [3]: > 100 µM
GI50 [4]: > 100 µM
TGI [4]: > 100 µM
GI50 [5]: > 100 µM
TGI [5]: > 100 µM
GI50 [6]: 0.598 µM
TGI [6]: > 100 µM
GI50 [7]: 17.5 µM
TGI [7]: > 100 µM
GI50 [8]: > 100 µM
TGI [8]: > 100 µM

NC(=S)N/N=C1\C(=O)N(CCc2ccccc2)C(=O)C1C(=O)NCCc1ccccc1 (configuration not stated)
TGI [1]: > 100 µM
TGI [2]: > 100 µM
TGI [3]: > 100 µM
TGI [4]: > 100 µM
TGI [8]: > 100 µM
TGI [9]: > 100 µM
TGI [10]: > 100 µM

NCCn1ccc(NC(c2ccccc2)(c2ccccc2)c2ccccc2)nc1=O
TGI [2]: 31.9 µM
TGI [3]: 21.3 µM
TGI [4]: 32.8 µM
TGI [7]: 38.5 µM
TGI [8]: 32.8 µM
TGI [9]: > 100 µM
TGI [10]: 42.2 µM

COc1cc(OC)cc(-c2ccc(-c3ccc(C(=N)N)s3)s2)c1
GI50 [1]: 1.38 µM
TGI [1]: 2.78 µM
GI50 [2]: 1.03 µM
TGI [2]: 2.58 µM
GI50 [3]: 1.25 µM
TGI [3]: 2.99 µM
GI50 [4]: 1.77 µM
TGI [4]: 3.55 µM
GI50 [5]: 0.271 µM
TGI [5]: 0.991 µM
GI50 [6]: 1.24 µM and 0.277 µM
TGI [6]: 2.9 µM and 0.75 µM
GI50 [7]: 1.23 µM and 0.174 µM
TGI [7]: 2.74 µM and 0.374 µM
GI50 [8]: 1.61 µM
TGI [8]: 3.71 µM
